The record followed here is patent publication US11685741B2, “Fluorescent probes” (University of Massachusetts, priority 2017, dated 2023).

A short description of series [1]: Solubility of sensor noted in NMR studies. It counts as physicochemical. The note with it: NMR sample solution. An excerpt: The binding site of Fe^2+ on Rh101D was investigated by 2D NMR. […] COSY NMR spectra are of sufficient resolution for the assignment of the peaks in the aromatic region (FIG. 44). After adding Fe^2+ to Rh101D, all the ^1H NMR signals were broadened.
In order to probe the binding site of Fe^2+ on the NIRh-Fret sensor, 1D and 2D ^1H NMR of the sensor NIRh-Fret was investigated first. […] The assignment of the ^1H NMR peaks was based on 2D ^1H-^1H COSY spectra.

Series [2] in a line: Effect of pH on fluorescence of sensor and its Fe complex. It counts as physicochemical. The note with it: pH adjusted with HCl/NaOH.
Series [3] in a line: Binding studies of sensor with Fe2+ (stoichiometry, affinity, reversibility). As to conditions: for binding constant: 1:1 sensor-Fe^2+ complex, H2O/THF pH 7.3 v/v 1:1. How it is done:
The binding stoichiometry between the sensor Rh6GD and Fe^2+ was investigated by absorption and fluorescence titrations first. The sensor, Rh6GD has an absorption band at ˜420 nm (FIG. 26) which is due to the transition from S0 to S1 states (A. Chakraborty, et al., N. Chem. Phys., 2006, 324, 733) of the dimethylaminocinnamaldehyde moiety. […] Similar titrations were performed and were monitored by fluorescence spectroscopy.
The binding constant was estimated by using the absorption titration results. The equations below were used to calculate the binding constant for 2:1 complexes following a reported procedure (M. Guo, et al., Dalton Trans., 2007, 102, 4951). S+2L ? SL2 (1) The complex apparent binding constant is given by
[formula] Fc is the fraction of L that formed a complex; the subscripts e and o stand for equilibrium and initial concentrations, respectively. Au, Am, and Ac are the absorbances of solutions of L (before any Fe^2+ was added), during the titration, and at saturation, respectively. The concentration of free Fe^2+ at equilibrium, [S]e, is found with the following identity: [S]e=[S]o−[SL2]e[=S]o−Fc[L]o (4) Finally, the integrated apparent binding constant equation is shown in equation (5).
Reversibility experiments were carried out by adding the metal chelator EDTA to the Rh6GD-Fe^2+ complex in H2O/THF (pH 7.3, v/v 4:1). […]
Besides metal-selectivity, the binding constant, which describes the strength of binding between the sensor and metal cations, is also an important factor to be considered in bio-imaging. […] Job's method was applied to study the binding stoichiometry between Rh101D and Fe^2+ and monitored by the absorbance at 585 nm.
The binding constants were estimated by using the fluorescence titration results (FIG. 38). […]
The binding stoichiometry and the affinity between the sensor NIRh-Fret and Fe^2+ were investigated by UV-vis absorption titration. […] The binding constant for the formation of this complex was determined to be 2.9×10^6 M^−1 using a reported procedure (C. A. Perez, et al., J. Inorg. Biochem., 2009, 103, 326). […]

The subject of series [4] is cells in the culture experiments. The series is described as follows: Cell permeability and toxicity in the culture experiments. The note with it: for cell permeability: live cells in culture. Type of series: cell-based.

SMILES strings stand for the structures.

For `CCN(CC)c1ccc2c(c1)OC1=C(CCC/C1=C\C=C1\N(C)c3ccccc3C1(C)C)C21c2ccccc2C(=O)N1/N=C\C=C\c1ccc(N(C)C)cc1` (stereo not shown) [NIRh-Fret, (E)-6′-(diethylamino)-2-(((1Z,2E)-3-(4-(dimethylamino)phenyl)allylidene)amino)-4′-(2-((E)-1,3,3-trimethylindolin-2-ylidene)ethylidene)-1′,2′,3′,4′-tetrahydrospiro[isoindoline-1,9′-xanthen]-3-one], in series [1], the solubility entry is “limited solubility”. Also, the “pH range over which sensor (and Fe complex) fluorescence is stable / working pH range” value in series [2] is no less than 4.5. In series [3], this compound returned a binding constant of 2.9e+06 M⁻¹.

Consider `CN(C)c1ccc(/C=C/C=N/N2C(=O)c3ccccc3C23c2cc4c5c(c2Oc2c3cc3c6c2CCCN6CCC3)CCCN5CCC4)cc1` [Rh101D], for which the cell permeability result in series [4] is “cell permeable”. The solubility result in series [1] is reported as “limited solubility”. For the same compound, in series [2], the “pH range over which sensor (and Fe complex) fluorescence is stable / working pH range” value lay in the range of 9.5 to 4.5. This compound also came in with a binding constant in series [3] of 120000 M⁻¹.

In the case of `CCNc1cc2c(cc1C)C1(c3cc(C)c(NCC)cc3O2)c2ccccc2C(=O)N1/N=C/C=C/c1ccc(N(C)C)cc1` [Rh6GD, 2-(((1E,2E)-3-(4-(dimethylamino)phenyl)allylidene)amino)-3′,6′-bis(ethylamino)-2′,7′-dimethylspiro[isoindoline-1,9′-xanthen]-3-one], the “pH range over which sensor (and Fe complex) fluorescence is stable / working pH range” value in series [2] lay within 9.3 to 4.5. Moreover, the apparent binding constant in series [3] (2:1 sensor-Fe^2+ complex, absorption titration, H2O/THF pH 7.3 v/v 4:1) is 1.8×10^11 M^−2.

As for `CCN(CC)c1ccc2c(c1)Oc1cc(N(CC)CC)ccc1C21c2ccccc2C(=O)N1CC/N=C(\C)c1cccc(C(C)=O)n1` [Rh-PK, (E)-2-(2-((1-(6-acetylpyridin-2-yl)ethylidene)amino)ethyl)-3′,6′-bis(diethylamino)spiro[isoindoline-1,9′-xanthen]-3-one], the toxicity for cells entry in series [4] (culture experiments) was “non-toxic”. In series [4], the cell permeability result was “excellent cell permeability”. For the same compound, the “pH range over which sensor (and Fe complex) fluorescence is stable / working pH range” value in series [2] is 4 to 9; in series [2] (listed as Rh-Pk), 4-9.
